ChEMBL document CHEMBL1201862, “PubChem BioAssay data set” (2004)
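96-well plates; 48 h exposure; 5 concentrations. Endpoints by linear interpolation between flanking doses. Not reached: highest tested concentration assigned. GI50 marks 50% less growth.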 The source made the active and inactive calls. Cut-off read from the data, not from the text of the source: active = GI50 up to about 1.1 µM and inactive = higher.

Legend:
Assay in all cases: growth of human tumour cells (NCI), 48 h
SF-539 = tested on: SF-539
BT-549 = tested on: BT-549
TK-10 = tested on: TK-10
PC-3 = tested on: PC-3
NCI-H522 = tested on: NCI-H522
HT-29 = tested on: HT-29
NCI-H460 = tested on: NCI-H460
U-251 = tested on: U-251
HOP-62 = tested on: HOP-62
NCI-H23 = tested on: NCI-H23
OVCAR-4 = tested on: OVCAR-4
SNB-19 = tested on: SNB-19
DU-145 = tested on: DU-145
SK-MEL-28 = tested on: SK-MEL-28
HCT-116 = tested on: HCT-116
NCI/ADR-RES = tested on: NCI/ADR-RES
RPMI-8226 = tested on: RPMI-8226
UACC-62 = tested on: UACC-62
SR = tested on: SR

Measured: GI50

CC(Cl)(CCC(Cl)C(C)(C)Cl)C(=O)CBr (stereo unspecified)
inactive: SF-539 16.1 µM | BT-549 14.2 µM | TK-10 11.8 µM | PC-3 14.6 µM | NCI-H522 1.95 µM | HT-29 13.1 µM | NCI-H460 15.9 µM | U-251 15.6 µM | HOP-62 18.2 µM | NCI-H23 18.3 µM | OVCAR-4 2.73 µM | SNB-19 30.3 µM | DU-145 19.5 µM | SK-MEL-28 16.7 µM | HCT-116 7.05 µM | NCI/ADR-RES 22.8 µM | RPMI-8226 2.25 µM | UACC-62 10.1 µM | SR 1.8 µM

CCCc1[nH]nc(C(N)=O)c1/N=N/N(C)C
inactive: SF-539 48.4 µM | BT-549 24.3 µM | TK-10 67.5 µM | PC-3 > 100 µM | NCI-H522 17.8 µM | HT-29 86.3 µM | U-251 55.8 µM | HOP-62 58.7 µM | NCI-H23 75.3 µM | OVCAR-4 54.1 µM | SNB-19 > 100 µM | DU-145 49.5 µM | SK-MEL-28 > 100 µM | HCT-116 51.9 µM | NCI/ADR-RES 91 µM | RPMI-8226 39.4 µM | UACC-62 36.9 µM | SR 10.5 µM

Cc1cn(C(C)OCCN2C(=O)c3ccccc3C2=O)c(=O)[nH]c1=O (stereo unspecified)
inactive: SF-539 > 100 µM | BT-549 > 100 µM | PC-3 > 100 µM | HT-29 > 100 µM | NCI-H460 > 100 µM | U-251 > 100 µM | HOP-62 > 100 µM | NCI-H23 > 100 µM | OVCAR-4 > 100 µM | SNB-19 > 100 µM | DU-145 > 100 µM | SK-MEL-28 > 100 µM | HCT-116 > 100 µM | NCI/ADR-RES > 100 µM | RPMI-8226 > 100 µM | UACC-62 > 100 µM | SR > 100 µM

CC1(C)OC2COC3([C@@H]4OC(C)(C)O[C@@H]4CO)OC(C)(C)OC3C2O1 (stereo partly specified)
inactive: SF-539 > 100 µM | BT-549 > 100 µM | PC-3 > 100 µM | NCI-H460 > 100 µM | U-251 > 100 µM | HOP-62 > 100 µM | NCI-H23 > 100 µM | OVCAR-4 > 100 µM | SNB-19 > 100 µM | DU-145 > 100 µM | SK-MEL-28 > 100 µM | HCT-116 > 100 µM | NCI/ADR-RES > 100 µM | RPMI-8226 > 100 µM | UACC-62 > 100 µM | SR > 100 µM

O=C(NNC(=O)c1ccco1)c1ccco1
inactive: SF-539 > 100 µM | BT-549 > 100 µM | TK-10 > 100 µM | PC-3 > 100 µM | NCI-H522 15 µM | HT-29 > 100 µM | NCI-H460 > 100 µM | U-251 > 100 µM | HOP-62 > 100 µM | OVCAR-4 > 100 µM | SNB-19 > 100 µM | DU-145 > 100 µM | SK-MEL-28 > 100 µM | HCT-116 > 100 µM | NCI/ADR-RES > 100 µM | RPMI-8226 > 100 µM | UACC-62 > 100 µM | SR > 100 µM

CC(=O)O[C@H]1C[C@]2(C)C(CCC3O[C@@]32C)[C@@]2(CC(c3ccoc3)OC2O)[C@@H]1C (stereo partly specified)
inactive: SF-539 > 100 µM | BT-549 40 µM | TK-10 > 100 µM | PC-3 50.1 µM | NCI-H522 44.3 µM | HT-29 75.9 µM | NCI-H460 60.8 µM | U-251 > 100 µM | NCI-H23 72.3 µM | OVCAR-4 41 µM | SNB-19 > 100 µM | DU-145 > 100 µM | SK-MEL-28 > 100 µM | HCT-116 60.8 µM | NCI/ADR-RES > 100 µM | RPMI-8226 28.9 µM | UACC-62 37.6 µM | SR 39.2 µM

Cc1cc(S(N)(=O)=O)c(SCc2nc(N)nc(N(C)C)n2)cc1Cl
inactive: SF-539 > 10 µM | BT-549 > 10 µM | TK-10 > 10 µM | PC-3 > 10 µM | NCI-H522 > 10 µM | HT-29 > 10 µM | NCI-H460 > 10 µM | U-251 > 10 µM | HOP-62 > 10 µM | NCI-H23 > 10 µM | OVCAR-4 > 10 µM | SNB-19 > 10 µM | DU-145 > 10 µM | SK-MEL-28 > 10 µM | HCT-116 > 10 µM | NCI/ADR-RES > 10 µM | RPMI-8226 > 10 µM | SR > 10 µM

CC(=O)OC(COc1ccc2c(c1)[n+]([O-])nc(N)[n+]2[O-])CN1CCCCC1 (stereo unspecified)
inactive: SF-539 15.2 µM | BT-549 24.5 µM | TK-10 23.5 µM | PC-3 1.52 µM | NCI-H522 11.1 µM | HT-29 11.1 µM | NCI-H460 3.97 µM | U-251 13.5 µM | NCI-H23 12.4 µM | OVCAR-4 30.7 µM | SNB-19 22.3 µM | DU-145 18.3 µM | SK-MEL-28 24.5 µM | HCT-116 10.3 µM | NCI/ADR-RES 68.5 µM | RPMI-8226 5.58 µM | SR 12.2 µM
